This is an account of results in ChEMBL document CHEMBL1201862, “PubChem BioAssay data set” (2004).

The target of experiment [1] is T1, Replicative DNA helicase DnaB (Mycobacterium tuberculosis, UniProt P9WMR3).
T1 sequence (P9WMR3 whole entry): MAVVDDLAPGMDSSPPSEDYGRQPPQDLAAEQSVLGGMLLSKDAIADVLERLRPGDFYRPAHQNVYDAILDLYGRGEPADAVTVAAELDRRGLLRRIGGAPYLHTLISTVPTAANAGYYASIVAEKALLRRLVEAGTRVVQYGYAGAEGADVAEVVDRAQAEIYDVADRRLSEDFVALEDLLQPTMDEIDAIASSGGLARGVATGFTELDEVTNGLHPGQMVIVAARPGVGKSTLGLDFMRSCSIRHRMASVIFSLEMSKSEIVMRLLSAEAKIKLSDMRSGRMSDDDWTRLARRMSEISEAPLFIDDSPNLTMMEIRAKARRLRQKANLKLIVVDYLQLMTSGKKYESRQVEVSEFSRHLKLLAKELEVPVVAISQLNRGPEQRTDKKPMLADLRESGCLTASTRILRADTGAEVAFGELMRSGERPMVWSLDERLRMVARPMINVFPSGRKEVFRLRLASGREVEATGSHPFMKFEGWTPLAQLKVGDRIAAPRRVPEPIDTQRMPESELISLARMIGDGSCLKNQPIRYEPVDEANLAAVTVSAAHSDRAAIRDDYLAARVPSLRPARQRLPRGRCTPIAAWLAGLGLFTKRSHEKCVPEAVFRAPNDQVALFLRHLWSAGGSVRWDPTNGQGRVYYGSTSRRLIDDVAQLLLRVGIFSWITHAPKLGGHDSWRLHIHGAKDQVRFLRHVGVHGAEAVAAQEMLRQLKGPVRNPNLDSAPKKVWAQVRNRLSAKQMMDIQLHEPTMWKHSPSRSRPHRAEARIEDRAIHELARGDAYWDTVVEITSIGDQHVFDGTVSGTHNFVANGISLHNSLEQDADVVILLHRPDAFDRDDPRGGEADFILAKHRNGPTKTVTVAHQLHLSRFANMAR
Put plainly: DnaB intein splicing inhibitors, dose response, biochemical, cell-free fluorescence (AID 449749). In kind it is functional.

For experiment [2], the target named is T2, Protein RecA (Mycobacterium tuberculosis, UniProt P9WHJ3).
T2 sequence (P9WHJ3 whole entry): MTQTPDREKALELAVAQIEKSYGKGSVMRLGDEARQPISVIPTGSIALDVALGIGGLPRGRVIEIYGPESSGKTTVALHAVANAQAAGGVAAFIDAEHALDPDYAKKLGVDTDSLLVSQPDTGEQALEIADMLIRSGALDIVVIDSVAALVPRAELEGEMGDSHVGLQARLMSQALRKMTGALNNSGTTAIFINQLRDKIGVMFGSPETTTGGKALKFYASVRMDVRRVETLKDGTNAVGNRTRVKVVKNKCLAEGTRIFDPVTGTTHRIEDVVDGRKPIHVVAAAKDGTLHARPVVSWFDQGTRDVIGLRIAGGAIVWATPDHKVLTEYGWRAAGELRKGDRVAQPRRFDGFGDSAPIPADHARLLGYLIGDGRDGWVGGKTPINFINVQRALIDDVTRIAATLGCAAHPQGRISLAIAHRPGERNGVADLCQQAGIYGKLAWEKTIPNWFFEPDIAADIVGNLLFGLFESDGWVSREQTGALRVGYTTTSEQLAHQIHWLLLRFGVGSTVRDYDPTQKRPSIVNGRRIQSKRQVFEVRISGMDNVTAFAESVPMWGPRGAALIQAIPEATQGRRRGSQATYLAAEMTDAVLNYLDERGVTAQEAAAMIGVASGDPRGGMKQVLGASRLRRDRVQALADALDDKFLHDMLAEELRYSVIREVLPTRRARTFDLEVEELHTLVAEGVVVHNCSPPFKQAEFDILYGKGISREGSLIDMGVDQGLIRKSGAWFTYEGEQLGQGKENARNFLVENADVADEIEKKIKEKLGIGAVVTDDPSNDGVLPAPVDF
Put plainly: Fluorescence Cell-Free Homogeneous Dose Retest to Identify Inhibitors of RecA-Intein Splicing Activity. [Related pubchem assays (depositor defined):AID2097, AID2223, AID489010, AID492950]. Format: functional.

Experiment [3] has as its system BJ. Nature of the experiment: BJ-TERT fibroblast viability loss – cell-based, RAS-independent, luminescence, dose response (AID 1933). Format: functional. The note with it: Homo sapiens.
In experiment [4] the test system is BJ. Nature of the experiment: cells. Format: functional, cell-based. The note with it: Homo sapiens.
The target in experiment [5] is E3 ubiquitin-protein ligase Mdm2 (Homo sapiens, UniProt Q00987). Nature of the experiment: MDM2-luc reporter signal enhancers, multi-concentration potency testing, MDM2 ubiquitin-protein ligase inhibitor program, whole-cell format, luminescence detection, 384-well microplate (AID 1394).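 Note: MDM2 E3 inhibitors raise luminescence so EC50 is for signal enhancement.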 In kind it is functional.
Experiment [6] in a line: DRD fibroblast viability loss – cell-based, non-viral oncogenic, luminescence, dose response (AID 1934). Format: functional. Particulars: Homo sapiens.
The nature of experiment [7]: P. falciparum Dd2 growth inhibitors, dose response, SYBR Green, cherry-picked samples (AID 1159567). In kind it is functional, cell-based.
The nature of experiment [8]: toxicity to human hepatoma HepG2 cells – cell-based, cherry-picked samples, cytotoxicity control, dose response (AID 1159577). In kind it is functional.
Experiment [9] can be described thus: glucagon-like peptide-1 release potency in STC-1, concentration-response, half-maximal inhibitory concentration in the STC-1 line (AID 1117345). Format: functional, cell-based.
Experiment [10] can be described thus: Potency on glucagon-like peptide 1 release, dose-response in NCI-H716 cell line, half maximal inhibitory concentration (AID 1117344). In kind it is functional, cell-based.
Experiment [11] is described as follows: viability loss in Vero cells – cytotoxicity control for Vif-APOBEC3G degradation inhibitor project, dose response (AID 1117358). Format: functional. The note with it: Vero.
Experiment [12] concerns the target T3, Calpain-2 catalytic subunit (Sus scrofa, UniProt P43367).
T3 sequence (P43367 whole entry): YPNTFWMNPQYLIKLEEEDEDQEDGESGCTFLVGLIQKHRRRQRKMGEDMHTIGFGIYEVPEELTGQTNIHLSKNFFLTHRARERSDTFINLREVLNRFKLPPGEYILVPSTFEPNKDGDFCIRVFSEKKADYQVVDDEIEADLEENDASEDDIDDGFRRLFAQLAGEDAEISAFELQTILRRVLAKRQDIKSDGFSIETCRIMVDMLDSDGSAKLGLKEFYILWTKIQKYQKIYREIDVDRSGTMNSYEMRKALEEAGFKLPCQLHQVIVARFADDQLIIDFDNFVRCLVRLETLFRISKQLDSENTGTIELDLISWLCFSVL
Put plainly: m-calpain protease blockers, concentration series – biochemical, fluorogenic peptide substrate, dose response (AID 1420). In kind it is functional.

Each structure is given as a SMILES string. Calls of active or inactive are those of the source.

Sequence of E3 ubiquitin-protein ligase Mdm2 (Q00987 whole entry): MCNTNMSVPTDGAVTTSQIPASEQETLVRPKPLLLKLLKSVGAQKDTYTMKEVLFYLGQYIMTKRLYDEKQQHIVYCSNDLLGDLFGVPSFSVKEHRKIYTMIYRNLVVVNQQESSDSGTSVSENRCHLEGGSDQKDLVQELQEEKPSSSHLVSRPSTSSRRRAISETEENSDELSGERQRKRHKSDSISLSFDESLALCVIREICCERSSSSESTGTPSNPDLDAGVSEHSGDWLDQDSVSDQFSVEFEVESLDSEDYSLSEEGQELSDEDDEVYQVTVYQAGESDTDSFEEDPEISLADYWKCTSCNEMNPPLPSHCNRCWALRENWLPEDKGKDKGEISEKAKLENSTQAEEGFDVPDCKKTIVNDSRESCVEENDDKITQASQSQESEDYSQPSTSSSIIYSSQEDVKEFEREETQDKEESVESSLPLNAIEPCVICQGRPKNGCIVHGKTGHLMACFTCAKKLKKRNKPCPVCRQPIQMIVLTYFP

The term AC50 denotes the concentration giving half of the maximal activity seen. Usually EC50 stands for the concentration that produces a half-maximal response. In the case of `Cc1ccc(C=C2C(Cl)=C(Cl)C(Cl)=C2Cl)cc1`, the AC50 in experiment [1] is > 380 µM (inactive). Moreover, the half-maximal effective concentration (EC50) in experiment [2] was 5.66 µM (active); in experiment [3], 5.3 µM (inconclusive); in experiment [4] it was 6.03 µM (inconclusive); in [5] it was 0.78 µM (active); in [6] it was 5.03 µM (inconclusive).
Regarding `N#C[C@@H]1[C@H](c2ccc(C#Cc3ccccc3F)cc2)[C@H](CO)N1C(=O)C1CCCC1`, the half-maximal activity concentration (AC50) is 3.48 µM (active) in [7] and > 39 µM (inactive) in experiment [8].
In general, IC50 refers to the concentration that gives 50% inhibition. For the compound `CCCCCCCCCCCCCCNCCO`, the values for the IC50 in experiment [9] and in experiment [10] were > 20 µM (inactive) and 13.6 µM (inactive), respectively.
In general, CC50 refers to the concentration at which the toxic effect on the cells reaches its halfway point. For `Cc1cc(-c2ccccc2)nc(Oc2ccc(C(C)(C)C)cc2)c1S(C)(=O)=O`, the CC50 in experiment [11] is > 40 µM (active). Also, in [12], the half-inhibitory concentration (IC50) was > 50 µM (not active).
